The test system of assay [1] is animal models of osteoporosis. Put plainly: Micro CT bone density in animal models of osteoporosis. Type of assay: in vivo, mouse. To be noted: OVX mice, 50 μg/kg i.p. twice a day for 4 weeks; femur microCT; compared to PBS. The protocol:
To make an osteoporosis model, 10-18 12 weeks old female mice per group underwent ovarian ablation. A week later, 50 μg/kg of NPY(21-28), NPY D^25(21-28), NPY D^26(21-28), NPY D^25,26(21-28), Osteopep2, NPY and 100 μl of PBS(Gibco) were intraperitoneally administered twice a day for 4 weeks at 12 hour intervals. Alendronate (Sigma), used as a competitive drug, was intraperitoneally administered once a week for 4 weeks at a dose of 50 μg/kg. As a control group, only Sham model of osteoporosis was performed by subcutaneous dissection of female mouse. Mice were placed in experimental groups using the Block randomization method, and all mouse experiments were approved through the Kyungpook National University Institutional Animal Care and Use Committee. The femurs were separated from the mouse and refrigerated in 80% ethanol, and in order to measure change of bone density, the bone volume/total volume and trabecular thickness were measured by analyzing the area between 0.7 mm and 2.3 mm from the growth plate baseline with the Quantum FX microCT Imaging System. Femurs were separated from mice after the last administration of NPY (21-28) at 4 weeks. To determine the change of bone density, bone density (bone volume/total volume) and bone tissue thickness (trabecular thickness) were measured with the Quantum FX microCT Imaging System. Femurs were separated from mice after the last administration of NPY D^25(21-28), NPY D^26(21-28), and NPY D^25,26(21-28) at 4 weeks. To determine the change of bone density, bone density (bone volume/total volume) and bone tissue thickness (trabecular thickness) were measured with the Quantum FX microCT Imaging System.

Assay [2] has as its system osteoblasts in bone marrow. Put plainly: H & E staining of osteoblasts in bone marrow of osteoporosis animal models. Type of assay: in vivo, mouse. To be noted: OVX mice, 50 μg/kg i.p. twice a day for 4 weeks; compared to PBS. The procedure: To make an osteoporosis model, 10-18 12 weeks old female mice per group underwent ovarian ablation. A week later, 50 μg/kg of NPY(21-28), NPY D^25(21-28), NPY D^26(21-28), NPY D^25,26(21-28), Osteopep2, NPY and 100 μl of PBS(Gibco) were intraperitoneally administered twice a day for 4 weeks at 12 hour intervals. Alendronate (Sigma), used as a competitive drug, was intraperitoneally administered once a week for 4 weeks at a dose of 50 μg/kg. As a control group, only Sham model of osteoporosis was performed by subcutaneous dissection of female mouse. Mice were placed in experimental groups using the Block randomization method, and all mouse experiments were approved through the Kyungpook National University Institutional Animal Care and Use Committee.
The femurs were separated from the mice and fixed in 4% paraformaldehyde for 24 hours, and tissue was decalcified in 10% EDTA for 5 weeks. It was then dehydrated with a series of diluted alcohols, paraffinized, and prepared into […] paraffin sections.
For H & E staining, the deparaffinized sections were stained with Harris hematoxyline for 8 minutes, washed with distilled water, and stained with Eosin for 1 minute.
Histomorphometric analysis was performed using the OsteoMeasure program (Extensive interactive Bone Histomorphometry Analysis System).
After the last administration of 4 weeks of NPY (21-28), the femurs were separated from the mice, and the number of osteoblasts in bone marrow was measured by H & E staining.
After the last administration of 4 weeks of NPY D^25(21-28), NPY D^26(21-28), and NPY D^25,26(21-28), the femurs were separated from the mice and the number of osteoblasts in bone marrow was measured by H & E staining.

Assay [3] has as its system hematopoietic stem cell adhesion factors (Sdf-1a, KitI, Angpt1) present in osteoblasts. Kind of assay: expression of hematopoietic stem cell adhesion factors in osteoblasts, real-time quantitative PCR. In kind it is cell-based, mouse. To be noted: for expression levels of Sdf-1a, KitI, and Angpt1 in osteoblasts: 10 nM peptide for 3 days, compared to osteoblasts (control) not treated with peptides, fold change. The protocol:
All mice used in the experiment were 6 to 8 weeks old mice, C57BL/6 mice, and purchased from Jackson Laboratory (Bar Harbor, Me., USA). NPY (21-28) (SEQ ID NO: 1), NPY (24-31) (SEQ ID NO: 2), NPY (29-36) (SEQ ID NO: 3), NPY D25 (21-28) (SEQ ID NO: 4), NPY D26 (21-28) (SEQ ID NO: 5), NPY D25, 26 (21-28) (SEQ ID NO: 6), NPY (21-36) (Osteopep2) (SEQ ID NO: 7) were prepared from Anygen. Full length NPY (SEQ ID NO: 8) was purchased from Bachem. 10 nM of each peptide was diluted in each medium and injected for in vitro experiments. The NPY D^25(21-28) refers to a peptide in which arginine, the fifth amino acid of the amino acid sequence of NPY (21-28), is modified to D-type, the NPY D^26(21-28) refers to a peptide in which the sixth amino acid histidine is modified to D-form, and the D^25,26(21-28) refers to a peptide in which both the fifth and sixth amino acids are modified to D-form, respectively.
Four to six weeks old C57BL/6 mice were sacrificed after anesthesia, and then tibias and femurs were dissected. Bone marrow was harvested from tibias and femurs and single cell suspensions were obtained using a 40 μm cell strainer (Becton-Dickinson LAβware, Franklin Lakes, N.J.). Approximately […] were dispensed into 75-cm 2 flasks containing mesenchymal stem cells Stimulatory Supplements with antibiotics (Stem Cell Technologies, Inc) and MesenCult™ MSCBasal medium. The cells were incubated for 1 week and further incubated for 3 weeks with StemXVivo Osteogenic/Adipogenic Base Media (R & D systems) supplemented with StemXVivo Osteogenic supplement (20×) and penicillin-streptomycin (100×) for differentiation into osteoblasts.
Real-time quantitative PCR was used to measure expression levels of hematopoietic stem cell adhesion factors (Sdf-1a, KitI, Angpt1) present in osteoblasts. Total RNA was extracted from cell eluate and bone marrow cells using the RNeasy Plus mini kit (Qiagen, Korea, Ltd), and cDNAs were synthesized from 5 μg total RNA using a kit in Clontech (Mountain View, Calif.). In addition, using a Corbett research RG-6000 real-time PCR instrument, Real-time quantitative PCR was performed at 95° C. for 10 minutes; at 95° C., for 10 seconds; at 58° C., for 15 seconds; at 72° C. for 20 seconds as one cycle, and 40 cycles were repeated.
First, bone marrow was harvested from 4 to 6 weeks old C57BL6 mice, and mesenchymal stem cells (BM-MSCs) in bone marrow were collected, and then cultured for 3 weeks in osteoblast differentiation induction medium for the differentiation into osteoblasts. After 28 days, each peptide was treated with 10 nM for 3 days, and bone cells were collected and examined for expression levels of three adhesion factors by real-time quantitative PCR. Osteopep2 and its parent NPY were used as positive controls.

Entries after “also recorded” stand apart in the source; their conditions may differ. Non-standard residues stand in square brackets, D forms with d. No end group written: not given here.

Regarding “NPY D^25(21-28): peptide in which arginine, the fifth amino acid of the amino acid sequence of NPY (21-28), is modified to D-type (YSAL[dR]HYI)”, in assay [1], the “bone tissue thickness (trabecular thickness)” value (shortened to “bone tissue thickness”) is on record as “increased; also recorded: equal to or higher than that of NPY (21-28)” and the “percentage of bone density (BV/TV)” value is on record as “increased; also recorded: equal to or higher than that of NPY (21-28)”. For the same substance, in assay [2], the “number of osteoblast (Number of osteoblast/Bone surface)” value is “increased” and the “osteoblast surface (Osteoblast surface/Bone surface)” value is given as “increased”. In addition, the “expression levels of Sdf-1a, KitI, and Angpt1 in osteoblasts” value (“expression levels of Sdf-1a, KitI” for short) in assay [3] is “decreased”.
Regarding “NPY D^25,26(21-28): peptide in which both the fifth and sixth amino acids of NPY (21-28) are modified to D-form (YSAL[dR][dH]YI)”, in assay [1], the “bone tissue thickness” value is listed as “increased; also recorded: equal to or higher than that of NPY (21-28); also recorded: best effect” and the “percentage of bone density (BV/TV)” value is “increased; also recorded: equal to or higher than that of NPY (21-28); also recorded: best effect”. In assay [2], the “number of osteoblast (Number of osteoblast/Bone surface)” value is on record as “increased” and the “osteoblast surface (Osteoblast surface/Bone surface)” value was “increased”. The “expression levels of Sdf-1a, KitI” value in assay [3] is “decreased”. In addition, the “amount of Angpt1 expression in osteoblasts, compared with NPY (21-28)” value in assay [3] (10 nM peptide, osteoblasts) is reported as “further reduce the amount of Angpt1 expression than NPY (21-28)”.
Turning to YSALRHYI [NPY (21-28)], in assay [1], the “bone tissue thickness” value is “better than that of the Osteopep2 and NPY”; the “percentage of bone density (BV/TV)” value is “better than that of the Osteopep2 and NPY”. Moreover, in assay [2], the “number of osteoblast (Number of osteoblast/Bone surface)” value was “increased; also recorded: better than that of Osteopep2” and the “osteoblast surface (Osteoblast surface/Bone surface)” value is “increased; also recorded: better than that of Osteopep2”. Besides, the “expression levels of Sdf-1a, KitI” value in assay [3] was “decreased”.

Values taken from patent US11279744B2, “Neuropeptide Y fragment capable of releasing hematopoietic stem cells into blood and treating osteoporosis” (Kyungpook National University Industry-Academic Cooperation …, priority 2017, dated 2022).
